The target in data set [1] is T1, recombinant human VEGF165 (Homo sapiens, UniProt P15692).
T1 sequence (P15692 27-191 isoform P15692-4): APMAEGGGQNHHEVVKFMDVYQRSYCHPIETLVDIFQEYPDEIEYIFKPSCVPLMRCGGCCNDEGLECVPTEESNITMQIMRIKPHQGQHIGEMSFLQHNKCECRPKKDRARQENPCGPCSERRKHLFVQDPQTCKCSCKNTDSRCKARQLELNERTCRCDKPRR
Put plainly: VEGF peptide binding assay (competition ELISA, VEGF165 binding to coated VEGFR2/Fc). In outline: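 VEGFR2/Fc was coated, and peptides (0.128–10,000 nM, N-acetyl, C-amide) were preincubated with 25 ng/ml human VEGF165 and added for 1 h at RT. Bound VEGF was detected with biotinylated anti-VEGF, streptavidin-HRP and TMB at OD450. IC50 came from sigmoid dose-response fits of OD450 versus concentration.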
(An ELISA detects its analyte on a solid surface through an enzyme-linked reagent.)

Data set [2] has as its target T2, human angiopoietin-2 protein (Homo sapiens, UniProt O15123).
T2 construct: purchased R&D Systems
T2 sequence (O15123 19-496): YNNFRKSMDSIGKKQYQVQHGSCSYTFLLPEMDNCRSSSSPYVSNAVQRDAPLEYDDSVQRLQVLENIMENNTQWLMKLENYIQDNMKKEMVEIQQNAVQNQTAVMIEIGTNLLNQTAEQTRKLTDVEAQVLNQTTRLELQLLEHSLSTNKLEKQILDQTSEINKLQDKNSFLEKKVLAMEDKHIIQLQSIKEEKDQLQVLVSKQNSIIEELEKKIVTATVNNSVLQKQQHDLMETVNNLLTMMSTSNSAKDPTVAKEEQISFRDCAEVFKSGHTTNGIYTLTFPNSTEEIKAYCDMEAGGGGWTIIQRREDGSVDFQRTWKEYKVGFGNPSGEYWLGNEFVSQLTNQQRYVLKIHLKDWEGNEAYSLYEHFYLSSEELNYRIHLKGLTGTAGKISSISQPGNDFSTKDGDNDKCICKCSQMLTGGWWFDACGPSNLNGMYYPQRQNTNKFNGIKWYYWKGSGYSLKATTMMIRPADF
Description: Ang2 competitive ELISA (Ang-2 coated, Tie-2-Fc competition). Conditions: Table 6, column P. It counts as binding. The method, then: The ability of Ang2 binding compounds to interact with Ang2 was measured by competition with Tie-2. These tests were described in US2008166364 (and also in PCT/IE2007/000110), whose contents are herein incorporated by reference in their entirety. In particular, those portions of PCT/IE2007/000110 and US2008166364 detailing the advantages and disadvantages of various Ang2-binding peptides, and the advantages and disadvantages of covalently linking certain Ang2-binding peptides to catalytic antibodies (and those portions specifically relating to linking to h38C2), as well as the advantages and disadvantages of using specific residues of the respective Ang2-specific peptide as the linking residue (in this context, linking residue meaning the residue covalently linked to the linker (for example as used herein in Example 4)). For competitive ELISA, human angiopoietin-2 protein and Tie-2-Fc (R&D Systems) were reconstituted without carrier protein. Mouse anti-human Tie-2 (Pharmingen) was used as the primary antibody and goat anti-mouse-IgG 1-HRP (Pierce) was used as the secondary antibody. TMB substrate from Pierce was used.
High-binding half-well plates were coated with Ang-2 (100 ng/well) in 50 W PBS and incubated at 4° C. overnight. […] Color development was monitored and stopped with 25 μl of 2 M H2SO4. OD450 nm with a correction wavelength of 540 nm was measured.

A short description of data set [3]: Mouse half-life (T 1/2) and screening half-life of Ang2 binding compounds. The settings on record: mouse, in vivo; Table 5, screening half life (in parentheses), shorter test period; read-out: T ½ (Sc) hours, screening half life. It counts as in vivo, Swiss Webster mice. The method, then:
For “screening” T ½, test compounds were intravenously administered into male Swiss Webster mice. Blood samples were taken from 4 mice per time point via retroorbital sinus bleed at the following time points: 0.08, 5, and 32 hours. Blood level of test compounds were determined by ELISA. The data were reported as the percentage of test compounds at 32 hours versus 5 min. Normal T ½ was calculated in a similar fashion, after undergoing additional data analysis using WinNonlin version 4.1 (Pharsight Corporation). The data was fit to a model based upon the shape of the curve (i.e. a bi-exponential decline will be fit to a two compartment model, etc.) The criteria for best fit (i.e. lowest % CV) was based on iterative re-weighted least squares.

Where a SMILES comes first, the peptide text is derived from it. Bridges are numbered along the chain shown (N, C = ends). [ ]: non-standard residue; d: D form. The star is where a group is joined. Phe(4-COOH) = N[C@@H](Cc1ccc(C(=O)O)cc1)C(=O)O; X1 = O=C(COCC(=O)*)Nc1ccc(CCC(=O)N2CCC2=O)cc1; Nva = CCC[C@H](N)C(=O)O

The term IC50 denotes the point on the concentration scale where inhibition reaches its midpoint. Turning to `CC[C@H](C)[C@@H]1NC(=O)[C@H](CC(=O)O)NC(=O)[C@@H](NC(=O)[C@H](CC(N)=O)NC(=O)[C@@H]2CCCN2C(=O)[C@H](CCC(=O)O)NC(=O)[C@@H](NC(C)=O)C(C)C)CSSC[C@@H](C(=O)N[C@@H](Cc2ccccc2)C(=O)N[C@@H](CCC(=O)O)C(=O)N[C@@H](CCCNC(=N)N)C(=O)N[C@@H](CC(C)C)C(=O)N[C@@H](Cc2ccc(O)cc2)C(=O)NCC(=O)N[C@@H](CC(C)C)C(=O)N[C@@H](CCC(=O)O)C(N)=O)NC(=O)[C@H](CCC(=O)O)NC(=O)[C@H](Cc2c[nH]c3ccccc23)NC(=O)[C@H](C(C)C)NC(=O)[C@H](Cc2c[nH]c3ccccc23)NC(=O)[C@H](CCSC)NC(=O)[C@H](C(C)C)NC(=O)[C@H](Cc2c[nH]cn2)NC1=O` [Compound 75, VEPNCDIHVMWVWECFERLYGLE] (Ac-VEPNCDIHVMWVWECFERLYGLE-NH2; disulfide 5-15 (inferred)), the IC50 in data set [1] is 3 nM.

As for `CC[C@H](C)[C@@H]1NC(=O)[C@H](CC(=O)O)NC(=O)[C@@H](NC(=O)[C@H](CC(N)=O)NC(=O)[C@@H]2CCCN2C(=O)[C@H](CCC(=O)O)NC(=O)[C@@H](NC(C)=O)C(C)C)CSSC[C@@H](C(=O)N[C@@H](Cc2ccccc2)C(=O)N[C@@H](CCC(=O)O)C(=O)N[C@@H](CCCNC(=N)N)C(=O)N[C@@H](CC(C)C)C(=O)N[C@@H](Cc2ccc(O)cc2)C(=O)NCC(=O)N2CCC[C@H]2C(=O)N[C@@H](CC(C)C)C(N)=O)NC(=O)[C@H](CCC(=O)O)NC(=O)[C@H](Cc2c[nH]c3ccccc23)NC(=O)[C@H](C(C)C)NC(=O)[C@H](Cc2c[nH]c3ccccc23)NC(=O)[C@H](CCSC)NC(=O)[C@H](C(C)C)NC(=O)[C@H](Cc2c[nH]cn2)NC1=O` [Compound 76, VEPNCDIHVMWVWECFERLYGPL] (Ac-VEPNCDIHVMWVWECFERLYGPL-NH2; disulfide 5-15 (inferred)), the IC50 in data set [1] was found to be 2.3 nM.

For `CC[C@H](C)[C@@H]1NC(=O)[C@H](CC(=O)O)NC(=O)[C@@H](NC(=O)[C@H](CC(N)=O)NC(=O)[C@@H]2CCCN2C(=O)[C@H](CCC(=O)O)NC(=O)[C@@H](NC(C)=O)C(C)C)CSSC[C@@H](C(=O)N[C@@H](Cc2ccccc2)C(=O)N[C@@H](CCC(=O)O)C(=O)N[C@@H](CCCNC(=N)N)C(=O)N[C@@H](CC(C)C)C(=O)N[C@@H](Cc2ccc(O)cc2)C(=O)NCC(=O)N2CCC[C@H]2C(=O)N[C@@H](Cc2ccccc2)C(N)=O)NC(=O)[C@H](CCC(=O)O)NC(=O)[C@H](Cc2c[nH]c3ccccc23)NC(=O)[C@H](C(C)C)NC(=O)[C@H](Cc2c[nH]c3ccccc23)NC(=O)[C@H](CCSC)NC(=O)[C@H](C(C)C)NC(=O)[C@H](Cc2c[nH]cn2)NC1=O` [Compound 77, VEPNCDIHVMWVWECFERLYGPF] (Ac-VEPNCDIHVMWVWECFERLYGPF-NH2; disulfide 5-15 (inferred)), the IC50 in data set [1] stood at 1.8 nM.

The compound `CSCC[C@H](NC(=O)[C@H](Cc1ccccc1)NC(=O)[C@H](CCC(N)=O)NC(=O)[C@H](CC(=O)O)NC(=O)[C@H](Cc1ccc(O)cc1)NC(=O)[C@H](CC(C)C)NC(=O)[C@@H](NC(=O)[C@H](CCCCN)NC(=O)[C@H](CC(=O)O)NC(=O)[C@H](CC(C)C)NC(=O)[C@H](CCC(=O)O)NC(=O)[C@H](CC(=O)O)NC(=O)[C@H](CC(C)C)NC(=O)[C@@H]1CCCN1C(=O)[C@H](CCC(N)=O)NC(=O)[C@H](Cc1ccc(O)cc1)NC(=O)[C@H](CCCCN)NC(=O)[C@H](CCC(N)=O)NC(C)=O)[C@@H](C)O)C(=O)N[C@@H](CC(C)C)C(=O)N[C@@H](CCC(N)=O)C(=O)N[C@@H](CCC(N)=O)C(=O)NCC(N)=O` [Compound 4021] yielded a half-maximal inhibitory concentration (IC50) in data set [2] of 36.4 nM.

In general, half-life refers to the time needed for the level to fall by half in the phase considered. In the case of `CCC[C@H](NC(=O)[C@@H](NC(=O)[C@H](CCCCNC(=O)COCC(=O)Nc1ccc(CCC(=O)N2CCC2=O)cc1)NC(=O)[C@H](CC(=O)O)NC(=O)[C@H](CC(C)C)NC(=O)[C@H](CCC(=O)O)NC(=O)[C@H](CC(=O)O)NC(=O)[C@H](CC(C)C)NC(=O)[C@@H]1CCCN1C(=O)[C@H](CCC(N)=O)NC(=O)[C@H](Cc1ccc(O)cc1)NC(=O)[C@H](CCCCNC(C)=O)NC(=O)[C@H](CCC(N)=O)NC(C)=O)[C@@H](C)O)C(=O)N[C@@H](Cc1ccc(O)cc1)C(=O)N[C@@H](CC(=O)O)C(=O)N[C@@H](CCC(N)=O)C(=O)N[C@@H](Cc1ccccc1)C(=O)N[C@@H](CCSC)C(=O)N[C@@H](CC(C)C)C(=O)N[C@@H](CCC(N)=O)C(=O)N[C@@H](CCC(N)=O)C(=O)NCC(N)=O` [Compound 4041] (Ac-QK(Ac)YQPLDELDK(X1)T[Nva]YDQFMLQQG-NH2), in data set [3], the half-life amounted to 36 h.

Turning to `CSCC[C@H](NC(=O)[C@H](Cc1ccccc1)NC(=O)[C@H](CCC(N)=O)NC(=O)[C@H](CC(=O)O)NC(=O)[C@H](Cc1ccc(O)cc1)NC(=O)[C@H](CCC(C)C)NC(=O)[C@@H](NC(=O)[C@H](CCCCNC(=O)COCC(=O)Nc1ccc(CCC(=O)N2CCC2=O)cc1)NC(=O)[C@H](CC(=O)O)NC(=O)[C@H](CC(C)C)NC(=O)[C@H](CCC(=O)O)NC(=O)[C@H](CC(=O)O)NC(=O)[C@H](CC(C)C)NC(=O)[C@@H]1CCCN1C(=O)[C@H](CCC(N)=O)NC(=O)[C@H](Cc1ccc(O)cc1)NC(=O)[C@H](CCCCNC(C)=O)NC(=O)[C@H](CCC(N)=O)NC(C)=O)[C@@H](C)O)C(=O)N[C@@H](CC(C)C)C(=O)N[C@@H](CCC(N)=O)C(=O)N[C@@H](CCC(N)=O)C(=O)NCC(N)=O` [Compound 4042], in data set [3], the half-life came to 42 h.

Take `CSCC[C@H](NC(=O)[C@H](Cc1ccccc1)NC(=O)[C@H](CCC(N)=O)NC(=O)[C@H](CC(=O)O)NC(=O)[C@H](Cc1ccc(O)cc1)NC(=O)[C@H](CC(C)C)NC(=O)[C@@H](NC(=O)[C@H](CCCCNC(=O)COCC(=O)Nc1ccc(CCC(=O)N2CCC2=O)cc1)NC(=O)[C@H](CC(=O)O)NC(=O)[C@H](CC(C)C)NC(=O)[C@H](CCC(=O)O)NC(=O)[C@H](CC(=O)O)NC(=O)[C@H](CC(C)C)NC(=O)[C@@H]1CCCN1C(=O)[C@H](CCC(N)=O)NC(=O)[C@H](Cc1ccc(O)cc1)NC(=O)[C@H](CCCCNC(C)=O)NC(=O)[C@H](CCC(N)=O)NC(=O)CCOCCOCCNC(C)=O)[C@@H](C)O)C(=O)N[C@@H](CC(C)C)C(=O)N[C@@H](CCC(N)=O)C(=O)N[C@@H](CCC(N)=O)C(=O)NCC(N)=O` [Compound 4052, (Amido 2-PEG)QKacY QPL DEL DK(0P)T LYD QFMLQQ G]: in data set [3], the half-life stood at 31 h.

Take `CSCC[C@H](NC(=O)[C@H](Cc1ccccc1)NC(=O)[C@H](CCC(N)=O)NC(=O)[C@H](CC(=O)O)NC(=O)[C@H](Cc1ccc(C(=O)O)cc1)NC(=O)[C@H](CC(C)C)NC(=O)[C@@H](NC(=O)[C@H](CCCCNC(=O)COCC(=O)Nc1ccc(CCC(=O)N2CCC2=O)cc1)NC(=O)[C@H](CC(=O)O)NC(=O)[C@H](CC(C)C)NC(=O)[C@H](CCC(=O)O)NC(=O)[C@H](CC(=O)O)NC(=O)[C@H](CC(C)C)NC(=O)[C@@H]1CCCN1C(=O)[C@H](CCC(N)=O)NC(=O)[C@H](Cc1ccc(O)cc1)NC(=O)[C@H](CC(N)=O)NC(=O)[C@H](CCC(N)=O)NC(C)=O)[C@@H](C)O)C(=O)N[C@@H](CC(C)C)C(=O)N[C@@H](CCC(N)=O)C(=O)N[C@@H](CCC(N)=O)C(=O)NCC(N)=O` [Compound 4057] (Ac-QNYQPLDELDK(X1)TL[Phe(4-COOH)]DQFMLQQG-NH2): the half-life in data set [3] turned out to be 11 h.

These data come from patent US8937048B2, “Anti-angiogenic compounds” (Covx Technologies Ireland, Limited, priority 2008, dated 2015).
